Source: patent US20230085307A1, “PYRIDAZINONE COMPOUND AND HERBICIDE” (NISSAN CHEMICAL CORPORATION, priority 2019, published 2023)

How the values were obtained:
[1] = test system: Italian ryegrass; assay: Test Example 4: herbicidal effect by soil treatment (Table 19, symbol K); type: in vivo, Italian ryegrass (Lolium multiflorum); settings: amount of applied herbicide 320 g/ha
Procedure, shortened: (§1)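 Step 1: sow seeds in sterilized diluvial soil, cover ~1.5 cm. Step 2: spray diluted emulsion onto soil surface at predetermined rate. Step 3: greenhouse, 25–30° C, three weeks. Step 4: grade effect on each plant by earlier criteria.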

[2] = test system: blackgrass; assay: Test Example 4: herbicidal effect by soil treatment (Table 19, symbol J); type: in vivo, blackgrass (Alopecurus myosuroides); settings: amount of applied herbicide 320 g/ha
Procedure, shortened: as §1

[3] = test system: lambsquarters; assay: Test Example 5: herbicidal effect by foliage application, plastic box (Table 20, symbol O); type: in vivo, lambsquarters (Chenopodium album); settings: foliage application, 320 g/ha, evaluated three weeks after application
Procedure, shortened: (§2)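 Foliar spray test: emulsion formulation diluted in water to a set application rate, sprayed onto 14-day-old plants raised in diluvial soil at 25° C to 30° C under glass. Both herbicidal effect and crop effect rated visually three weeks later.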

[4] = test system: windgrass; assay: Test Example 5: herbicidal effect by foliage application, plastic box (Table 20, symbol L); type: in vivo, windgrass (Apera spica-venti); settings: foliage application, 320 g/ha, evaluated three weeks after application
Procedure, shortened: as §2

[5] = test system: Japanese bulrush; assay: Test Example 1: herbicidal activity, application before weed generation under submerged conditions (Table 16, symbol B); type: in vivo, Japanese bulrush (Schoenoplectus juncoides); settings: 320 g/ha applied herbicide
Procedure, shortened: (§3)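 Alluvial soil was flooded to 4 cm depth, weed seeds were sown mixed and 2.5-leaf rice seedlings were transplanted. On sowing day, the compound's emulsion, diluted in water to a set dose, was applied to the water surface. Plants grew at 25–30 °C and were scored 0–5 after three weeks.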

[6] = test system: late watergrass; assay: Test Example 1: herbicidal activity, application before weed generation under submerged conditions (Table 16, symbol A); type: in vivo, late watergrass (Echinochloa oryzicola); settings: 320 g/ha applied herbicide
Procedure, shortened: as §3

[7] = test system: oval-leafed pondweed; assay: Test Example 1: herbicidal activity, application before weed generation under submerged conditions (Table 16, symbol C); type: in vivo, oval-leafed pondweed (Monochoria vaginalis); settings: 320 g/ha applied herbicide
Procedure, shortened: as §3

[8] = test system: barnyard grass; assay: Test Example 4: herbicidal effect by soil treatment (Table 19, symbol H); type: in vivo, barnyard grass (Echinochloa crus-galli); settings: amount of applied herbicide 320 g/ha
Procedure, shortened: as §1

[9] = test system: wild oat; assay: Test Example 5: herbicidal effect by foliage application, plastic box (Table 20, symbol I); type: in vivo, wild oat (Avena fatua); settings: foliage application, 320 g/ha, evaluated three weeks after application
Procedure, shortened: as §2

[10] = test system: persian speedwell; assay: Test Example 5: herbicidal effect by foliage application, plastic box (Table 20, symbol R); type: in vivo, Persian speedwell (Veronica persica); settings: foliage application, 320 g/ha, evaluated three weeks after application
Procedure, shortened: as §2

[11] = test system: green foxtail; assay: Test Example 4: herbicidal effect by soil treatment (Table 19, symbol G); type: in vivo, green foxtail (Setaria viridis); settings: amount of applied herbicide 320 g/ha
Procedure, shortened: as §1

[12] = test system: southern crabgrass; assay: Test Example 4: herbicidal effect by soil treatment (Table 19, symbol F); type: in vivo, southern crabgrass (Digitaria ciliaris); settings: amount of applied herbicide 320 g/ha
Procedure, shortened: as §1

[13] = test system: Chinese sprangletop; assay: Test Example 3: herbicidal effect by foliage application, Wagner pot (Table 18, symbol D); type: in vivo, chinese sprangletop (Leptochloa chinensis); settings: amount of applied herbicide 320 g/ha
Procedure, shortened: (§4)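 Plants were sown in alluvial soil held under 0.1–0.5 cm standing water and grown 14 days in a greenhouse at 25–30 °C. An emulsifiable formulation, water-diluted to the set dose, was then sprayed onto the foliage, and effects were scored three weeks later using previously defined criteria.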

[14] = test system: velvetleaf; assay: Test Example 5: herbicidal effect by foliage application, plastic box (Table 20, symbol M); type: in vivo, velvetleaf (Abutilon theophrasti); settings: foliage application, 320 g/ha, evaluated three weeks after application
Procedure, shortened: as §2

[15] = test system: velvetleaf; assay: Test Example 4: herbicidal effect by soil treatment (Table 19, symbol M); type: in vivo, velvetleaf (Abutilon theophrasti); settings: amount of applied herbicide 320 g/ha
Procedure, shortened: as §1

[16] = test system: green foxtail; assay: Test Example 5: herbicidal effect by foliage application, plastic box (Table 20, symbol G); type: in vivo, green foxtail (Setaria viridis); settings: foliage application, 320 g/ha, evaluated three weeks after application
Procedure, shortened: as §2

[17] = test system: wild oat; assay: Test Example 4: herbicidal effect by soil treatment (Table 19, symbol I); type: in vivo, wild oat (Avena fatua); settings: amount of applied herbicide 320 g/ha
Procedure, shortened: as §1

[18] = test system: blackgrass; assay: Test Example 5: herbicidal effect by foliage application, plastic box (Table 20, symbol J); type: in vivo, blackgrass (Alopecurus myosuroides); settings: foliage application, 320 g/ha, evaluated three weeks after application
Procedure, shortened: as §2

[19] = test system: barnyard grass; assay: Test Example 3: herbicidal effect by foliage application, Wagner pot (Table 18, symbol H); type: in vivo, barnyard grass (Echinochloa crus-galli); settings: amount of applied herbicide 320 g/ha
Procedure, shortened: as §4

[20] = test system: Italian ryegrass; assay: Test Example 5: herbicidal effect by foliage application, plastic box (Table 20, symbol K); type: in vivo, Italian ryegrass (Lolium multiflorum); settings: foliage application, 320 g/ha, evaluated three weeks after application
Procedure, shortened: as §2

[21] = test system: redroot pigweed; assay: Test Example 5: herbicidal effect by foliage application, plastic box (Table 20, symbol N); type: in vivo, redroot pigweed (Amaranthus retroflexus); settings: foliage application, 320 g/ha, evaluated three weeks after application
Procedure, shortened: as §2

[22] = test system: redroot pigweed; assay: Test Example 4: herbicidal effect by soil treatment (Table 19, symbol N); type: in vivo, redroot pigweed (Amaranthus retroflexus); settings: amount of applied herbicide 320 g/ha
Procedure, shortened: as §1

[23] = test system: chickweed; assay: Test Example 4: herbicidal effect by soil treatment (Table 19, symbol P); type: in vivo, common chickweed (Stellaria media); settings: amount of applied herbicide 320 g/ha
Procedure, shortened: as §1

[24] = test system: barnyard grass; assay: Test Example 5: herbicidal effect by foliage application, plastic box (Table 20, symbol H); type: in vivo, barnyard grass (Echinochloa crus-galli); settings: foliage application, 320 g/ha, evaluated three weeks after application
Procedure, shortened: as §2

[25] = test system: lambsquarters; assay: Test Example 4: herbicidal effect by soil treatment (Table 19, symbol O); type: in vivo, lambsquarters (Chenopodium album); settings: amount of applied herbicide 320 g/ha
Procedure, shortened: as §1

[26] = test system: chickweed; assay: Test Example 5: herbicidal effect by foliage application, plastic box (Table 20, symbol P); type: in vivo, common chickweed (Stellaria media); settings: foliage application, 320 g/ha, evaluated three weeks after application
Procedure, shortened: as §2

[27] = test system: persian speedwell; assay: Test Example 4: herbicidal effect by soil treatment (Table 19, symbol R); type: in vivo, Persian speedwell (Veronica persica); settings: amount of applied herbicide 320 g/ha
Procedure, shortened: as §1

[28] = test system: windgrass; assay: Test Example 4: herbicidal effect by soil treatment (Table 19, symbol L); type: in vivo, windgrass (Apera spica-venti); settings: amount of applied herbicide 320 g/ha
Procedure, shortened: as §1

[29] = test system: southern crabgrass; assay: Test Example 5: herbicidal effect by foliage application, plastic box (Table 20, symbol F); type: in vivo, southern crabgrass (Digitaria ciliaris); settings: foliage application, 320 g/ha, evaluated three weeks after application
Procedure, shortened: as §2

[30] = test system: rice flat sedge; assay: Test Example 3: herbicidal effect by foliage application, Wagner pot (Table 18, symbol E); type: in vivo, rice flat sedge (Cyperus iria); settings: amount of applied herbicide 320 g/ha
Procedure, shortened: as §4

Row | Compound | K: Italian ryegrass, herbicidal effect rating [1] | J: blackgrass, herbicidal effect rating [2] | herbicidal effect on O: lambsquarters (criteria 0-5) [3] | herbicidal effect on L: windgrass (criteria 0-5) [4] | Herbicidal effect on B: Japanese bulrush (grade 0-5) [5] | Herbicidal effect on A: late watergrass (grade 0-5) [6] | Herbicidal effect on C: oval-leafed pondweed (grade 0-5) [7] | H: barnyard grass, herbicidal effect rating [8] | herbicidal effect on I: wild oat (criteria 0-5) [9] | herbicidal effect on R: persian speedwell (criteria 0-5) [10] | G: green foxtail, herbicidal effect rating [11] | F: southern crabgrass, herbicidal effect rating [12] | herbicidal effect on D: Chinese sprangletop [13] | herbicidal effect on M: velvetleaf (criteria 0-5) [14] | M: velvetleaf, herbicidal effect rating [15] | herbicidal effect on G: green foxtail (criteria 0-5) [16] | I: wild oat, herbicidal effect rating [17] | herbicidal effect on J: blackgrass (criteria 0-5) [18] | herbicidal effect on H: barnyard grass [19] | herbicidal effect on K: Italian ryegrass (criteria 0-5) [20] | other results
1 | CCCC(=O)Oc1c(C)nn(C)c(=O)c1-c1c(-c2ccccc2F)sc2ccc(F)cc12 [2-200] | 3 (Herbicidal rate of 40% or more and less than 70%) | 0 (Herbicidal rate of 5% or less (almost no effect)) | 3 (Herbicidal rate of 40% or more and less than 70%) | 3 (Herbicidal rate of 40% or more and less than 70%) | 0 (Herbicidal rate of 5% or less (almost no effect)) | 3 (Herbicidal rate of 40% or more and less than 70%) | 0 (Herbicidal rate of 5% or less (almost no effect)) | 3 (Herbicidal rate of 40% or more and less than 70%) | 0 (Herbicidal rate of 5% or less (almost no effect)) | 4 (Herbicidal rate of 70% or more and less than 90%) | 1 (Herbicidal rate of 5% or more and less than 20%) | 1 (Herbicidal rate of 5% or more and less than 20%) | 5 (Herbicidal rate of 90% or more (almost completely withered)) | 5 (Herbicidal rate of 90% or more (almost completely withered)) | 0 (Herbicidal rate of 5% or less (almost no effect)) | 4 (Herbicidal rate of 70% or more and less than 90%) | 0 (Herbicidal rate of 5% or less (almost no effect)) | 1 (Herbicidal rate of 5% or more and less than 20%) | 4 (Herbicidal rate of 70% or more and less than 90%) | 4 (Herbicidal rate of 70% or more and less than 90%) | herbicidal effect on N: redroot pigweed (criteria 0-5) [21]: 5 (Herbicidal rate of 90% or more (almost completely withered)); N: redroot pigweed, herbicidal effect rating [22]: 4 (Herbicidal rate of 70% or more and less than 90%); P: chickweed, herbicidal effect rating [23]: 1 (Herbicidal rate of 5% or more and less than 20%); herbicidal effect on H: barnyard grass (criteria 0-5) [24]: 3 (Herbicidal rate of 40% or more and less than 70%); O: lambsquarters, herbicidal effect rating [25]: 4 (Herbicidal rate of 70% or more and less than 90%); herbicidal effect on P: chickweed (criteria 0-5) [26]: 5 (Herbicidal rate of 90% or more (almost completely withered)); R: persian speedwell, herbicidal effect rating [27]: 3 (Herbicidal rate of 40% or more and less than 70%); L: windgrass, herbicidal effect rating [28]: 0 (Herbicidal rate of 5% or less (almost no effect)); herbicidal effect on F: southern crabgrass (criteria 0-5) [29]: 2 (Herbicidal rate of 20% or more and less than 40%); herbicidal effect on E: rice flat sedge [30]: 5 (Herbicidal rate of 90% or more (almost completely withered))
2 | CCCC(=O)Oc1c(C)nn(C)c(=O)c1-c1c(-c2cccc(OC)c2)sc2ccc(F)cc12 [2-210] | 4 (Herbicidal rate of 70% or more and less than 90%) | 1 (Herbicidal rate of 5% or more and less than 20%) | 4 (Herbicidal rate of 70% or more and less than 90%) | 5 (Herbicidal rate of 90% or more (almost completely withered)) | 0 (Herbicidal rate of 5% or less (almost no effect)) | 3 (Herbicidal rate of 40% or more and less than 70%) | 0 (Herbicidal rate of 5% or less (almost no effect)) | 4 (Herbicidal rate of 70% or more and less than 90%) | 0 (Herbicidal rate of 5% or less (almost no effect)) | 5 (Herbicidal rate of 90% or more (almost completely withered)) | 4 (Herbicidal rate of 70% or more and less than 90%) | 4 (Herbicidal rate of 70% or more and less than 90%) | 5 (Herbicidal rate of 90% or more (almost completely withered)) | 5 (Herbicidal rate of 90% or more (almost completely withered)) | 2 (Herbicidal rate of 20% or more and less than 40%) | 5 (Herbicidal rate of 90% or more (almost completely withered)) | 0 (Herbicidal rate of 5% or less (almost no effect)) | 3 (Herbicidal rate of 40% or more and less than 70%) | 5 (Herbicidal rate of 90% or more (almost completely withered)) | 4 (Herbicidal rate of 70% or more and less than 90%) | herbicidal effect on N: redroot pigweed (criteria 0-5) [21]: 5 (Herbicidal rate of 90% or more (almost completely withered)); N: redroot pigweed, herbicidal effect rating [22]: 5 (Herbicidal rate of 90% or more (almost completely withered)); P: chickweed, herbicidal effect rating [23]: 4 (Herbicidal rate of 70% or more and less than 90%); herbicidal effect on H: barnyard grass (criteria 0-5) [24]: 4 (Herbicidal rate of 70% or more and less than 90%); O: lambsquarters, herbicidal effect rating [25]: 1 (Herbicidal rate of 5% or more and less than 20%); herbicidal effect on P: chickweed (criteria 0-5) [26]: 5 (Herbicidal rate of 90% or more (almost completely withered)); R: persian speedwell, herbicidal effect rating [27]: 5 (Herbicidal rate of 90% or more (almost completely withered)); L: windgrass, herbicidal effect rating [28]: 0 (Herbicidal rate of 5% or less (almost no effect)); herbicidal effect on F: southern crabgrass (criteria 0-5) [29]: 5 (Herbicidal rate of 90% or more (almost completely withered)); herbicidal effect on E: rice flat sedge [30]: 5 (Herbicidal rate of 90% or more (almost completely withered))
